Holding throughout (format): cell-based
The target in one assay is T1, hGIPR (Homo sapiens, UniProt P48546).
T1 construct: expressed in transfected cells
T1 sequence (P48546 22-466): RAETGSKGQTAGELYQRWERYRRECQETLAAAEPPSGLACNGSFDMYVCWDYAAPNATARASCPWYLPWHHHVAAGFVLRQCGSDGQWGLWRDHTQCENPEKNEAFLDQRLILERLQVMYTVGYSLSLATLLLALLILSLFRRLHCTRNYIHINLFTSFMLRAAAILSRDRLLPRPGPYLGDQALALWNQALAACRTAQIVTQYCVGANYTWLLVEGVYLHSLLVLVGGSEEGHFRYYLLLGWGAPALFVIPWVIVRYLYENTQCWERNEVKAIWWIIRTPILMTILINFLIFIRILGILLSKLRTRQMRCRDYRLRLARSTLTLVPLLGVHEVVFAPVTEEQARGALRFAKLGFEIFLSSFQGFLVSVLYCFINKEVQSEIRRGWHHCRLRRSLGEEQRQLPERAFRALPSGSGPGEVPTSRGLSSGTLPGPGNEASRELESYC
In words: Functional cAMP formation (HTRF) in HEK-293 clonal cells expressing hGIPR, 0.1% bovine casein, without or with 1.0% human serum albumin. The conditions noted are these: for EC50: geometric mean. The procedure, abridged: (§1)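 Cells were stimulated with peptide for 30 min at 37° C, then lysed in buffer carrying cAMP-d2 and anti-cAMP Eu3+-cryptate for a competitive HTRF read after at least 60 min at room temperature. The 665/620 nm ratio was converted to nM cAMP against a standard curve.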
In general terms: cAMP levels reflect the balance of adenylyl cyclase and phosphodiesterase activity.

The target in another assay is hGLP-1R (Homo sapiens, UniProt P43220). In words: Functional cAMP formation (HTRF) in HEK-293 clonal cells expressing hGLP-1R, 0.1% bovine casein, without or with 1.0% human serum albumin. Details: expressed in transfected cells. The settings on record: for Emax: percent of maximal response to GLP-1(7-36)NH2; for EC50: geometric mean. The procedure, abridged: as §1
The target of the next assay is T2, hGCGR (Homo sapiens, UniProt P47871).
T2 construct: expressed in transfected cells
In words: Functional cAMP formation (HTRF) in HEK-293 clonal cells expressing hGCGR, 0.1% bovine casein, without or with 1.0% human serum albumin. The conditions noted are these: geometric mean. A digest of the protocol:
as §1

Setting [1] is: 0.1% bovine casein and 1.0% human serum albumin, 37° C., read-out: hGIPR EC50, nM (SEM, n).
Where [2] appears, read: HEK293, 0.1% bovine casein and 1.0% human serum albumin, 37° C., percent of maximal response to GIP(1-42)NH2, read-out: hGIPR Emax, % ± SEM.
[3] abbreviates: 0.1% bovine casein and 1.0% human serum albumin, 37° C., read-out: hGLP-1R EC50, nM (SEM, n).
Setting [4] is: HEK293, 0.1% bovine casein and 1.0% human serum albumin, 37° C., read-out: hGLP-1R Emax, % ± SEM.
The mark [5] stands for this setting: 0.1% bovine casein and 1.0% human serum albumin, 37° C., read-out: hGCGR EC50, nM (SEM, n).
Where [6] appears, read: cAMP, incubated at 37° C., 0.1% bovine casein (no human serum albumin), read-out: hGCGR EC50, nM (SEM, n).

Like-named read-outs stand apart in the source and are kept apart here. Where a SMILES comes first, the peptide text is derived from it. Side-chain parts run from the residue outwards. [ ]: non-standard residue; d: D form. The star is where a group is joined. αMePhe(2-F) = C[C@](N)(Cc1ccccc1F)C(=O)O; C14 diacid = O=C(O)CCCCCCCCCCCCC(=O)*; αMeY = C[C@](N)(Cc1ccc(O)cc1)C(=O)O; αMeL = CC(C)C[C@](C)(N)C(=O)O; Orn = NCCC[C@H](N)C(=O)O; AEEA = NCCOCCOCC(=O)O; Aib = CC(C)(N)C(=O)O

As a reminder, the Emax is the greatest response seen or fitted, relative to the assay's reference. As usually defined, the EC50 is the midpoint of the concentration-response curve.

T2 sequence (P47871 26-477): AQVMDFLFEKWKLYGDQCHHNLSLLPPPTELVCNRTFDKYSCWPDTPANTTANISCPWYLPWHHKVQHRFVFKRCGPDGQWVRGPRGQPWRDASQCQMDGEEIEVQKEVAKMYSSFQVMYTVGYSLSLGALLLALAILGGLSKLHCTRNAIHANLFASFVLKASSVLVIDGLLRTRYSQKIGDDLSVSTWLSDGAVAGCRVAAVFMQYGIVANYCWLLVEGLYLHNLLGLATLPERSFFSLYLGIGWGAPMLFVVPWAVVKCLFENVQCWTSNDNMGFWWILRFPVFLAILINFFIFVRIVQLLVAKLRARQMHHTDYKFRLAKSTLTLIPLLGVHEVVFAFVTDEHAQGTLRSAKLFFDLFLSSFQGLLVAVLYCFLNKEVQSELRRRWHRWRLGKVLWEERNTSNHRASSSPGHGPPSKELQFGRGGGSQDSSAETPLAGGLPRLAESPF
Chain of hGLP-1R (P43220 24-463): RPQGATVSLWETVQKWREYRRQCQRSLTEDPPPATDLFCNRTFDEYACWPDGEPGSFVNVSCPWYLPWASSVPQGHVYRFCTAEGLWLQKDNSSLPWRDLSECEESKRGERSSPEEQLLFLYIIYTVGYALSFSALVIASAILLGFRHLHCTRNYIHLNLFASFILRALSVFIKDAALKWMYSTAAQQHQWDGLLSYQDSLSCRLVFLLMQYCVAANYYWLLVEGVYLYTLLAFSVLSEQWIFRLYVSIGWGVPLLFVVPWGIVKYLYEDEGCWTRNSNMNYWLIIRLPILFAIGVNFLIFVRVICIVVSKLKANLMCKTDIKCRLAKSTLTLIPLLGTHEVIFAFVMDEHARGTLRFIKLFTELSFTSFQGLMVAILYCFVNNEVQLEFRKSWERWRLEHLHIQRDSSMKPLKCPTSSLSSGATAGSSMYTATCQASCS

As for `CC[C@H](C)[C@H](NC(=O)[C@H](CC(C)C)NC(=O)[C@](C)(Cc1ccc(O)cc1)NC(=O)[C@H](CCCCNC(=O)COCCOCCNC(=O)COCCOCCNC(=O)CC[C@H](NC(=O)CCCCCCCCCCCCC(=O)O)C(=O)O)NC(=O)[C@@H](NC(=O)[C@H](Cc1ccccc1)NC(=O)[C@H](CCC(=O)O)NC(=O)C(C)(C)NC(=O)[C@H](CCC(N)=O)NC(=O)[C@H](C)NC(=O)[C@H](CCCCNC(=O)COCCOCCNC(=O)COCCOCCNC(=O)CC[C@H](NC(=O)CCCCCCCCCCCCC(=O)O)C(=O)O)NC(=O)[C@H](CCCN)NC(=O)[C@H](CC(=O)O)NC(=O)[C@H](CC(C)C)NC(=O)[C@](C)(CC(C)C)NC(=O)[C@@H](NC(=O)[C@H](CO)NC(=O)[C@H](Cc1ccncc1)NC(=O)[C@H](CC(=O)O)NC(=O)[C@H](CO)NC(=O)[C@@H](NC(=O)[C@](C)(Cc1ccccc1F)NC(=O)[C@@H](NC(=O)CNC(=O)[C@H](CCC(=O)O)NC(=O)C(C)(C)NC(=O)[C@@H](N)Cc1ccc(O)cc1)[C@@H](C)O)[C@@H](C)O)[C@@H](C)CC)[C@@H](C)CC)C(=O)N[C@@H](CCC(=O)O)C(=O)NCC(=O)NCC(=O)N1CCC[C@H]1C(=O)N[C@@H](CO)C(=O)N[C@@H](CO)C(=O)NCC(=O)N[C@@H](C)C(=O)N1CCC[C@H]1C(=O)N1CCC[C@H]1C(=O)N1CCC[C@H]1C(=O)N[C@@H](CO)C(N)=O` [Example 16], the Emax on hGIPR (HEK293, read-out: hGIPR Emax, % ± SEM, 0.1% bovine casein and 1.0% human serum albumin, 37° C., percent of maximal response to GIP(1-42)NH2) was 91.5 ± 1.01%; at hGLP-1R (HEK293, read-out: hGLP-1R Emax, % ± SEM, 0.1% bovine casein and 1.0% human serum albumin, 37° C.), 98.3 ± 0.735%. For the same compound, the EC50 is 0.625 nM on hGIPR (hGIPR EC50, nM (SEM, n), 0.1% bovine casein and 1.0% human serum albumin, 37° C.); 0.0113 nM at hGIPR (hGIPR EC50, nM (SEM, n), cAMP, incubated at 37° C., 0.1% bovine casein (no human serum albumin)); 9.06 nM on hGLP-1R (hGLP-1R EC50, nM (SEM, n), 0.1% bovine casein and 1.0% human serum albumin, 37° C.); 0.245 nM on hGLP-1R (hGLP-1R EC50, nM (SEM, n), cAMP, incubated at 37° C., 0.1% bovine casein (no human serum albumin)); > 9950 nM at hGCGR (hGCGR EC50, nM (SEM, n), 0.1% bovine casein and 1.0% human serum albumin, 37° C.); > 9950 nM on hGCGR (hGCGR EC50, nM (SEM, n), cAMP, incubated at 37° C., 0.1% bovine casein (no human serum albumin)).

Consider `CC[C@H](C)[C@H](NC(=O)[C@H](CC(C)C)NC(=O)[C@](C)(Cc1ccc(O)cc1)NC(=O)[C@@H](CCC(=O)O)NC(=O)[C@@H](NC(=O)[C@H](Cc1ccccc1)NC(=O)[C@H](CCCN)NC(=O)C(C)(C)NC(=O)[C@H](CCC(N)=O)NC(=O)[C@H](C)NC(=O)[C@H](CCCCNC(=O)COCCOCCNC(=O)COCCOCCNC(=O)CC[C@H](NC(=O)CCCCCCCCCCCCC(=O)O)C(=O)O)NC(=O)[C@H](CCCN)NC(=O)[C@H](CC(=O)O)NC(=O)[C@H](CC(C)C)NC(=O)[C@](C)(CC(C)C)NC(=O)[C@@H](NC(=O)[C@H](CO)NC(=O)[C@H](Cc1ccncc1)NC(=O)[C@H](CC(=O)O)NC(=O)[C@H](CO)NC(=O)[C@@H](NC(=O)[C@](C)(Cc1ccccc1F)NC(=O)[C@@H](NC(=O)CNC(=O)[C@H](CCC(=O)O)NC(=O)C(C)(C)NC(=O)[C@@H](N)Cc1ccc(O)cc1)[C@@H](C)O)[C@@H](C)O)[C@@H](C)CC)[C@@H](C)CC)C(=O)N[C@@H](CCC(=O)O)C(=O)NCC(=O)NCC(=O)N[C@@H](CCCCNC(=O)COCCOCCNC(=O)COCCOCCNC(=O)CC[C@H](NC(=O)CCCCCCCCCCCCC(=O)O)C(=O)O)C(=O)N[C@@H](CO)C(=O)N[C@@H](CO)C(=O)NCC(=O)N[C@@H](C)C(=O)N1CCC[C@H]1C(=O)N1CCC[C@H]1C(=O)N1CCC[C@H]1C(=O)N[C@@H](CO)C(N)=O` [Example 150], for which the EC50 on hGIPR (setting [1]) was 0.35 nM; at hGLP-1R (setting [3]) it was 11 nM; at hGCGR (setting [5]), > 9950 nM; at hGCGR (setting [6]) it was > 9950 nM. Also, the values for the Emax on hGIPR (setting [2]) and on hGLP-1R (setting [4]) were 81.3 ± 3.18% and 100 ± 3.8%, respectively.

In the case of `CC[C@H](C)[C@H](NC(=O)[C@H](CC(C)C)NC(=O)[C@](C)(Cc1ccc(O)cc1)NC(=O)[C@@H](CCC(=O)O)NC(=O)[C@@H](NC(=O)[C@H](Cc1ccccc1)NC(=O)[C@H](CCCCNC(=O)COCCOCCNC(=O)COCCOCCNC(=O)CC[C@H](NC(=O)CCCc1ccc(C(C)(C)C)cc1)C(=O)O)NC(=O)C(C)(C)NC(=O)[C@H](CCC(N)=O)NC(=O)[C@H](C)NC(=O)[C@H](CCCCNC(=O)COCCOCCNC(=O)COCCOCCNC(=O)CC[C@H](NC(=O)CCCc1ccc(C(C)(C)C)cc1)C(=O)O)NC(=O)[C@H](CCCN)NC(=O)[C@H](CC(=O)O)NC(=O)[C@H](CC(C)C)NC(=O)[C@](C)(CC(C)C)NC(=O)[C@@H](NC(=O)[C@H](CO)NC(=O)[C@H](Cc1ccncc1)NC(=O)[C@H](CC(=O)O)NC(=O)[C@H](CO)NC(=O)[C@@H](NC(=O)[C@](C)(Cc1ccccc1F)NC(=O)[C@@H](NC(=O)CNC(=O)[C@H](CCC(=O)O)NC(=O)C(C)(C)NC(=O)[C@@H](N)Cc1ccc(O)cc1)[C@@H](C)O)[C@@H](C)O)[C@@H](C)CC)[C@@H](C)CC)C(=O)N[C@@H](CCC(=O)O)C(=O)NCC(=O)NCC(=O)N1CCC[C@H]1C(=O)N[C@@H](CO)C(=O)N[C@@H](CO)C(=O)NCC(=O)N[C@@H](C)C(=O)N1CCC[C@H]1C(=O)N1CCC[C@H]1C(=O)N1CCC[C@H]1C(=O)N[C@@H](CO)C(N)=O` [Example 131], the EC50 at hGIPR (setting [1]) is 0.0581 nM; at hGIPR (cAMP, incubated at 37° C., 0.1% bovine casein (no human serum albumin), read-out: hGIPR EC50, nM (SEM, n)), 0.0156 nM; at hGLP-1R (setting [3]), 1.04 nM; on hGLP-1R (cAMP, incubated at 37° C., 0.1% bovine casein (no human serum albumin), read-out: hGLP-1R EC50, nM (SEM, n)) it was 0.19 nM; at hGCGR (setting [5]) it was > 9950 nM; at hGCGR (setting [6]), > 9950 nM. The Emax was 90.4 ± 1.62% on hGIPR (setting [2]); 96.4 ± 1.95% at hGIPR (HEK293, percent of maximal response to GIP(1-42)NH2, 37° C., 0.1% bovine casein, arithmetic mean, read-out: hGIPR Emax, % ± SEM); 112 ± 1.76% on hGLP-1R (setting [4]).

Regarding `CC[C@H](C)[C@H](NC(=O)[C@H](CC(C)C)NC(=O)[C@](C)(Cc1ccc(O)cc1)NC(=O)[C@@H](CCC(=O)O)NC(=O)[C@@H](NC(=O)[C@H](Cc1ccccc1)NC(=O)[C@H](CCCCNC(=O)COCCOCCNC(=O)COCCOCCNC(=O)CCCCCCCCCCCCC(=O)O)NC(=O)C(C)(C)NC(=O)[C@H](CCC(N)=O)NC(=O)[C@H](C)NC(=O)[C@H](CCCCNC(=O)COCCOCCNC(=O)COCCOCCNC(=O)CCCCCCCCCCCCC(=O)O)NC(=O)[C@H](CCCN)NC(=O)[C@H](CC(=O)O)NC(=O)[C@H](CC(C)C)NC(=O)[C@](C)(CC(C)C)NC(=O)[C@@H](NC(=O)[C@H](CO)NC(=O)[C@H](Cc1ccc(OC)cc1)NC(=O)[C@H](CC(=O)O)NC(=O)[C@H](CO)NC(=O)[C@@H](NC(=O)[C@](C)(Cc1ccccc1F)NC(=O)[C@@H](NC(=O)CNC(=O)[C@H](CCC(=O)O)NC(=O)C(C)(C)NC(=O)[C@@H](N)Cc1ccc(O)cc1)[C@@H](C)O)[C@@H](C)O)[C@@H](C)CC)[C@@H](C)CC)C(=O)N[C@@H](CCC(=O)O)C(=O)NCC(=O)NCC(=O)N1CCC[C@H]1C(=O)N[C@@H](CO)C(=O)N[C@@H](CO)C(=O)NCC(=O)N[C@@H](C)C(=O)N1CCC[C@H]1C(=O)N1CCC[C@H]1C(=O)N1CCC[C@H]1C(=O)N[C@@H](CO)C(N)=O` [Example 265] (H-Y[Aib]EGT[αMePhe(2-F)]TSDY(Me)SI[αMeL]LD[Orn]K([AEEA-AEEA-C14 diacid])AQ[Aib]K([AEEA-AEEA-C14 diacid])FI[dE][αMeY]LIEGGPSSGAPPPS-NH2), the maximal effect (Emax) on hGIPR (setting [2]) is 96%; at hGIPR (HEK293, cAMP, 37° C., 0.1% bovine casein, percent of maximal response to GIP(1-42)NH2, arithmetic mean, read-out: hGIPR Emax, % ± SEM) it was 100%. For the same compound, the EC50 was 0.0145 nM on hGIPR (cAMP, 37° C., 0.1% bovine casein (no human serum albumin), read-out: hGIPR EC50, nM (SEM, n)); 0.262 nM at hGLP-1R (cAMP, 37° C., 0.1% bovine casein (no human serum albumin), read-out: hGLP-1R EC50, nM (SEM, n)); > 9950 nM on hGCGR (setting [5]); > 9950 nM on hGCGR (cAMP, 37° C., 0.1% bovine casein (no human serum albumin), read-out: hGCGR EC50, nM (SEM, n)).

The values above are taken from US20230265151A1, “GIP/GLP1 CO-AGONIST COMPOUNDS” (priority 2020, published 2023).
